pIC50: −log10 of the molar value.
target: Prothrombin (Homo sapiens, UniProt P00734); assay: In vitro inhibitory activity against thrombin

Q: How did the pIC50 turn out when `COc1ccc(C[C@@H](NC(=O)[C@@H](Cc2ccc3ccccc3c2)NC(=O)OCc2ccccc2)P(=O)(O)c2ccccc2)cc1` was run?
A: 4.15

Q: With `CC(=O)N[C@H](Cc1c[nH]c2ccccc12)C(=O)N[C@H](Cc1ccc(C(=N)N)cc1)P(=O)(O)c1ccccc1` as the compound, how does the pIC50 read?
A: 5.12

Q: With `N=C(N)c1ccc(C[C@@H](NC(=O)[C@@H](Cc2ccc3ccccc3c2)NC(=O)OCc2ccccc2)P(=O)(O)c2ccccc2)cc1` as the compound, how does the pIC50 read?
A: 5.44

Q: With `N=C(N)c1ccc(C[C@@H](NC(=O)[C@H](N)Cc2ccc3ccccc3c2)P(=O)(O)c2ccccc2)cc1` as the compound, how does the pIC50 read?
A: 6.22

From ChEMBL document CHEMBL1131790, “Structure-based design and synthesis of novel thrombin inhibitors based on phosphinic peptide mimetics” (Bioorg Med Chem Lett, 1999)
